Experimental data published in ChEMBL document CHEMBL1201862, “PubChem BioAssay data set” (2004).
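96-well plates; 48 h exposure; 5 concentrations. Endpoints by linear interpolation between flanking doses. Not reached: highest tested concentration assigned. GI50 is the concentration that inhibits growth by half.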 Activity calls are given as the source filed them. Rule as the data show it: active = GI50 up to about 1.1 µM and inactive = higher. Square brackets hold non-standard residues; d marks the D form. Peptide text beside a SMILES is read from it.

Legend:
Test in all cases: inhibition of tumour cell growth, NCI panel, 48 h
NCI-H226 = system: NCI-H226
Malme-3M = system: Malme-3M
SK-MEL-2 = system: SK-MEL-2
LOX IMVI = system: LOX IMVI
RPMI-8226 = system: RPMI-8226
UO-31 = system: UO-31
UACC-62 = system: UACC-62
UACC-257 = system: UACC-257
HCT-116 = system: HCT-116
U-251 = system: U-251
SF-295 = system: SF-295
HCT-15 = system: HCT-15
MOLT-4 = system: MOLT-4
A549 = system: A549
HT-29 = system: HT-29
786-0 = system: 786-0
SR = system: SR
TK-10 = system: TK-10

SMILES | GI50 (NCI-H226) | GI50 (Malme-3M) | GI50 (SK-MEL-2) | GI50 (LOX IMVI) | GI50 (RPMI-8226) | GI50 (UO-31) | GI50 (UACC-62) | GI50 (UACC-257) | GI50 (HCT-116) | GI50 (U-251) | GI50 (SF-295) | GI50 (HCT-15) [µM] | GI50 (MOLT-4) | GI50 (A549) | GI50 (HT-29) | GI50 (786-0) | GI50 (SR) | GI50 (TK-10)
O=C(CCN1CCOCC1)C(=Cc1ccccc1)C(=O)CCN1CCOCC1 | 14.6 µM (inactive) | 2.45 µM (inactive) | 8.34 µM (inactive) | 1.93 µM (inactive) | 1.04 µM (active) | 12.3 µM (inactive) | 2.31 µM (inactive) | 1.79 µM (inactive) | 2.29 µM (inactive) | 14.1 µM (inactive) | 15.6 µM (inactive) | 2.1 | 1.32 µM (inactive) | 18.1 µM (inactive) | 2.98 µM (inactive) | – | – | –
CC1=C(C(=O)Nc2ccccc2)C(c2ccccc2Cl)C(C(=O)Nc2ccccc2)=C(C)N1 | 22.2 µM (inactive) | 20 µM (inactive) | 18 µM (inactive) | 18.6 µM (inactive) | 19.4 µM (inactive) | 35.6 µM (inactive) | 13.6 µM (inactive) | 19.4 µM (inactive) | 22.6 µM (inactive) | 19.4 µM (inactive) | 25.4 µM (inactive) | 20 | 17.4 µM (inactive) | 41.6 µM (inactive) | 21 µM (inactive) | 19.6 µM (inactive) | 25.8 µM (inactive) | 38.7 µM (inactive)
N#CNCC(COCc1ccccc1)c1ccccc1 (stereo not drawn) | 98.4 µM (inactive) | > 100 µM (inactive) | 43.5 µM (inactive) | > 100 µM (inactive) | > 100 µM (inactive) | 46.1 µM (inactive) | > 100 µM (inactive) | – | > 100 µM (inactive) | > 100 µM (inactive) | – | 86.1 | 71.1 µM (inactive) | > 100 µM (inactive) | – | > 100 µM (inactive) | – | > 100 µM (inactive)
CCc1ccccc1NC(=O)C1=C(C)NC(C)=C(C(=O)Nc2ccccc2CC)C1c1ccccc1Cl | > 100 µM (inactive) | > 100 µM (inactive) | > 100 µM (inactive) | > 100 µM (inactive) | > 100 µM (inactive) | 35.5 µM (inactive) | – | > 100 µM (inactive) | > 100 µM (inactive) | > 100 µM (inactive) | > 100 µM (inactive) | – | 92.7 µM (inactive) | > 100 µM (inactive) | > 100 µM (inactive) | > 100 µM (inactive) | – | > 100 µM (inactive)
C=C1CCC2C(C)(CO)C(O)CCC2(C)C1CC(O)/C(=C/CO)C(=O)O (stereo not drawn) | – | > 100 µM (inactive) | > 100 µM (inactive) | > 100 µM (inactive) | > 100 µM (inactive) | > 100 µM (inactive) | > 100 µM (inactive) | > 100 µM (inactive) | > 100 µM (inactive) | > 100 µM (inactive) | > 100 µM (inactive) | > 100 | > 100 µM (inactive) | > 100 µM (inactive) | > 100 µM (inactive) | > 100 µM (inactive) | > 100 µM (inactive) | > 100 µM (inactive)
CCS(=O)(=O)Nc1ccc(Nc2c3ccccc3nc3ccccc23)c(OC)c1 | 0.331 µM (active) | 0.515 µM (active) | 5.37 µM (inactive) | 0.275 µM (active) | 0.28 µM (active) | 0.397 µM (active) | 0.416 µM (active) | 2.6 µM (inactive) | 1.19 µM (inactive) | 0.158 µM (active) | 0.13 µM (active) | 0.682 | < 0.01 µM (active) | 0.0205 µM (active) | 1.07 µM (active) | – | – | –
O=C(O)c1cc2c(ncc3c(=O)n(-c4ccccc4)[nH]c32)s1 | > 100 µM (inactive) | > 100 µM (inactive) | > 100 µM (inactive) | > 100 µM (inactive) | > 100 µM (inactive) | > 100 µM (inactive) | > 100 µM (inactive) | – | > 100 µM (inactive) | > 100 µM (inactive) | – | > 100 | > 100 µM (inactive) | > 100 µM (inactive) | > 100 µM (inactive) | – | > 100 µM (inactive) | > 100 µM (inactive)
CCOc1ccccc1NC(=O)CC1Sc2ccccc2NC1=O (stereo not drawn) | > 100 µM (inactive) | 52.7 µM (inactive) | 45.8 µM (inactive) | > 100 µM (inactive) | – | 61.1 µM (inactive) | 36.2 µM (inactive) | > 100 µM (inactive) | > 100 µM (inactive) | 79.4 µM (inactive) | 43.6 µM (inactive) | 53 | 41.5 µM (inactive) | 82.2 µM (inactive) | 55.3 µM (inactive) | > 100 µM (inactive) | 21 µM (inactive) | > 100 µM (inactive)
Cc1cc(/N=N/c2ccc(/N=N/c3c(O)c(S(=O)(=O)O)cc4cc(S(=O)(=O)O)ccc34)cc2C)ccc1/N=N/c1ccc2cc(S(=O)(=O)O)cc(S(=O)(=O)O)c2c1 | > 50.2 µM (inactive) | > 100 µM (inactive) | > 100 µM (inactive) | > 100 µM (inactive) | > 100 µM (inactive) | > 100 µM (inactive) | > 100 µM (inactive) | > 100 µM (inactive) | > 100 µM (inactive) | > 100 µM (inactive) | > 77.1 µM (inactive) | > 100 | > 100 µM (inactive) | > 100 µM (inactive) | > 31.6 µM (inactive) | – | – | –
CN1C(c2ccccc2)CC(=Nc2ccccc2)CC1c1ccccc1 (stereo not drawn) | 11.7 µM (inactive) | 10.8 µM (inactive) | – | 4.48 µM (inactive) | 2.98 µM (inactive) | 20.7 µM (inactive) | – | 10.4 µM (inactive) | 4.91 µM (inactive) | 6.82 µM (inactive) | 15.6 µM (inactive) | 16.1 | 7.13 µM (inactive) | 11.5 µM (inactive) | 8.67 µM (inactive) | 14.2 µM (inactive) | 10.9 µM (inactive) | 19.2 µM (inactive)
Cc1cc(Cl)ccc1NC(=O)CC1SC(Nc2ccccc2Cl)=NC1=O (stereo not drawn) | 24.2 µM (inactive) | 91.8 µM (inactive) | 48.4 µM (inactive) | – | 23.2 µM (inactive) | 35.5 µM (inactive) | 30.3 µM (inactive) | 50.2 µM (inactive) | 30.3 µM (inactive) | 26.4 µM (inactive) | 52.6 µM (inactive) | 39.9 | 30.2 µM (inactive) | 36.3 µM (inactive) | 37.1 µM (inactive) | 53.8 µM (inactive) | 20.6 µM (inactive) | 88.5 µM (inactive)
CC(C)C[C@H](NC(=O)[C@H](CC(C)C)NC(=O)[C@@H](Cc1c[nH]c2ccccc12)NC(=O)[C@H](Cc1ccccc1)NC(=O)[C@@H](Cc1c[nH]c2ccccc12)NC(=O)[C@H](CCC(N)=O)NC(=O)[C@@H](CCC(N)=O)NC(=O)[C@@H]1CCCN1C(=O)[C@@H](CCCCN)NC(=O)[C@H]1CCCN1C(=O)[C@H](N)CCCN=C(N)N)C(N)=O (H-[dR][dP][dK]P[dQ]Q[dW]F[dW]LL-NH2) | > 100 µM (inactive) | > 31.6 µM (inactive) | > 100 µM (inactive) | > 100 µM (inactive) | > 100 µM (inactive) | > 100 µM (inactive) | > 100 µM (inactive) | > 48.3 µM (inactive) | > 100 µM (inactive) | > 55 µM (inactive) | 63.5 µM (inactive) | > 100 | > 27.4 µM (inactive) | > 100 µM (inactive) | > 100 µM (inactive) | – | – | –
CN(C)CC1CCC/C1=N/OC(=O)c1ccccc1 (stereo not drawn) | > 100 µM (inactive) | – | > 100 µM (inactive) | > 100 µM (inactive) | > 100 µM (inactive) | > 100 µM (inactive) | > 100 µM (inactive) | > 100 µM (inactive) | > 100 µM (inactive) | > 100 µM (inactive) | > 100 µM (inactive) | > 100 | > 100 µM (inactive) | – | > 100 µM (inactive) | > 100 µM (inactive) | > 100 µM (inactive) | > 100 µM (inactive)
CN(/N=N/c1[nH]cnc1C(N)=O)C1CCCCC1 | > 100 µM (inactive) | 74.6 µM (inactive) | 27.1 µM (inactive) | 42.2 µM (inactive) | 52.6 µM (inactive) | – | 61.7 µM (inactive) | 62.1 µM (inactive) | 50.4 µM (inactive) | > 100 µM (inactive) | 86.7 µM (inactive) | > 100 | 49.1 µM (inactive) | > 100 µM (inactive) | > 100 µM (inactive) | – | 30.7 µM (inactive) | 40 µM (inactive)
C/C(=N\Nc1nnc(S)n1N)c1c(O)cc(C)oc1=O | > 100 µM (inactive) | > 100 µM (inactive) | > 100 µM (inactive) | > 100 µM (inactive) | – | > 100 µM (inactive) | > 100 µM (inactive) | > 100 µM (inactive) | > 100 µM (inactive) | > 100 µM (inactive) | > 100 µM (inactive) | > 100 | > 100 µM (inactive) | > 100 µM (inactive) | > 100 µM (inactive) | > 100 µM (inactive) | > 100 µM (inactive) | > 100 µM (inactive)
O=C(NC/C=C/CO)c1ccccc1 | > 100 µM (inactive) | > 100 µM (inactive) | > 100 µM (inactive) | > 100 µM (inactive) | > 100 µM (inactive) | > 100 µM (inactive) | > 100 µM (inactive) | > 100 µM (inactive) | > 100 µM (inactive) | > 100 µM (inactive) | > 100 µM (inactive) | > 100 | > 100 µM (inactive) | > 100 µM (inactive) | > 100 µM (inactive) | – | – | –
O=C(CC1(O)C(=O)Nc2c(Cl)cccc21)c1ccccc1 (stereo not drawn) | > 100 µM (inactive) | > 100 µM (inactive) | > 100 µM (inactive) | > 100 µM (inactive) | 49.3 µM (inactive) | > 100 µM (inactive) | – | > 100 µM (inactive) | – | > 100 µM (inactive) | > 100 µM (inactive) | > 100 | > 100 µM (inactive) | > 100 µM (inactive) | 84.7 µM (inactive) | > 100 µM (inactive) | – | > 100 µM (inactive)
